*1 amine or outer side, *2 acyl side, *3 side chain or, on linkers, in order; H or OH if unused. Where a SMILES comes first, the peptide text is derived from it. Bridges are numbered along the chain shown (N, C = ends). [ ]: non-standard residue; d: D form. The star is where a group is joined. C20 diacid = O=C(O)CCCCCCCCCCCCCCCCCCC(=O)*; γGlu = O=C(O)[C@H](CCC(=O)[*:2])N[*:1]; Hyp = O=C(O)[C@@H]1C[C@@H](O)CN1; NMeI = CC[C@H](C)[C@H](NC)C(=O)O; Aad = N[C@@H](CCCC(=O)O)C(=O)O; Sar = CNCC(=O)O
Key:
[1] = target: T1, human calcitonin receptor (hCTR2) (Homo sapiens, UniProt P30988); assay: hCTR2 cAMP assay (AlphaScreen) in COS7 cells; type: cell-based; settings: cAMP induction, COS7 cells expressing hCTR2; Table 1; read-out: hCTR2 EC50
T1 construct: expressed in transfected cells
T1 sequence (P30988 25-474): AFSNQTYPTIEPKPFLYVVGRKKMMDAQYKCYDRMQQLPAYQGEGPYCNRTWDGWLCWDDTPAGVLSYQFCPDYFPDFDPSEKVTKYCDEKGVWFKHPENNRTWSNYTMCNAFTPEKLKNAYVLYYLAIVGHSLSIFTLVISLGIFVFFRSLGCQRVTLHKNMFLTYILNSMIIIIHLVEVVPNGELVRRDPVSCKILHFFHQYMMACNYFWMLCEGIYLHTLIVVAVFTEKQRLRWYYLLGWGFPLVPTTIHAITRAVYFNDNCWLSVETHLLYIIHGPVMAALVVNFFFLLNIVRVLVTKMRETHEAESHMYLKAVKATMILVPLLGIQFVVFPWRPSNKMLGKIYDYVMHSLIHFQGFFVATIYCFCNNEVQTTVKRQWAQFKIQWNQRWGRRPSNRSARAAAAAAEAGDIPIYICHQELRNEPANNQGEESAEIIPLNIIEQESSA
How it was run: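 cAMP induction, read by AlphaScreen after lysis, gives EC50 values via 4PL curve fitting. Peptides were applied at rising concentrations for 15 min at 37 °C, with IBMX and 0.1% casein in HEPES-buffered Tyrode pH 7.4, to COS7 cells (no endogenous RAMPs) stably expressing human CTR2.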

[2] = target: T2, human amylin receptor 3 (hAMYR3), hCTR2 co-expressed with hRAMP3 (Homo sapiens, UniProt O60896+P30988); assay: hAMYR3 cAMP assay (AlphaScreen) in COS7 cells; type: cell-based; settings: cAMP induction, COS7 cells expressing hAMYR3; Table 1; read-out: hAMYR3 EC50
T2 construct: expressed in transfected cells
T2 sequence (P30988 25-474): T1 sequence (P30988 25-474)
T2 sequence (O60896 24-148 partner): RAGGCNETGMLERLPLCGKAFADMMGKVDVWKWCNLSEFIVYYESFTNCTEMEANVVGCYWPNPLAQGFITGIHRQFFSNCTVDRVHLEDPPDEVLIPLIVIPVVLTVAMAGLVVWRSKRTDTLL
How it was run: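 EC50 values derive from 4PL curve fits of cAMP (AlphaScreen) in lysates of RAMP-naive COS7 cells stably carrying hCTR2 plus hRAMP3. Peptide dilution series were applied for 15 min at 37 °C in pH 7.4 Tyrode buffer containing 100 µM IBMX and 0.1% casein.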

EC50 [1] [pM]	EC50 [2] [pM]	Compound
150	240	CC[C@H](C)[C@@H](C(=O)N[C@@H](CC(C)C)C(=O)N[C@@H](CO)C(=O)N[C@@H](CO)C(=O)N[C@H](C(=O)N[C@@H](CCC(=O)O)C(=O)N[C@H](C(=O)NCC(=O)N[C@@H](CO)C(=O)N[C@@H](CC(N)=O)C(=O)N[C@H](C(=O)N1CCC[C@H]1C(N)=O)[C@@H](C)O)C(C)C)[C@@H](C)O)N(C)C(=O)[C@H](C)NC(=O)CN(C)C(=O)[C@H](Cc1ccccc1)NC(=O)[C@H](CO)NC(=O)[C@H](CO)NC(=O)[C@H](CCCNC(=N)N)NC(=O)[C@H](CCC(N)=O)NC(=O)[C@H](CC(C)C)NC(=O)[C@H](Cc1ccccc1)NC(=O)[C@H](Cc1c[nH]cn1)NC(=O)[C@H](C)NC(=O)[C@H](CC(C)C)NC(=O)[C@H](CCCNC(=N)N)NC(=O)[C@H](CCC(=O)O)NC(=O)[C@@H](NC(=O)[C@H](C)NC(=O)[C@@H]1CSSC[C@H](NC(=O)[C@H](CCCNC(=N)N)NC(=O)CC[C@H](NC(=O)CCCCCCCCCCCCCCCCCCC(=O)O)C(=O)O)C(=O)NCC(=O)N[C@@H]([C@@H](C)O)C(=O)N[C@@H](C)C(=O)N[C@@H]([C@@H](C)O)C(=O)N1)[C@@H](C)O [Compound 78, [19CD]-isoGlu-R-C( )-GTAT-C( )-ATERLAHFLQRSSF-Gly(Me)-A-Ile(Me)-LSSTEVGSNTP-NH2] ({C20 diacid-γGlu}-RCGTATCATERLAHFLQRSSF[Sar]A[NMeI]LSSTEVGSNTP-NH2; disulfide 2-7)
200	130	CC[C@H](C)[C@@H](C(=O)N[C@@H](CC(C)C)C(=O)N[C@@H](CO)C(=O)N[C@@H](CO)C(=O)N[C@H](C(=O)N[C@@H](CCC(=O)O)C(=O)N[C@H](C(=O)NCC(=O)N[C@@H](CO)C(=O)N[C@@H](CO)C(=O)N[C@H](C(=O)N1C[C@H](O)C[C@H]1C(N)=O)[C@@H](C)O)C(C)C)[C@@H](C)O)N(C)C(=O)[C@H](C)NC(=O)CN(C)C(=O)[C@H](Cc1ccccc1)NC(=O)[C@H](CO)NC(=O)[C@H](CO)NC(=O)[C@H](CCCNC(=N)N)NC(=O)[C@H](CCC(N)=O)NC(=O)[C@H](CC(C)C)NC(=O)[C@H](Cc1ccccc1)NC(=O)[C@H](CCCC(=O)O)NC(=O)[C@H](C)NC(=O)[C@H](CC(C)C)NC(=O)[C@H](CCCNC(=N)N)NC(=O)[C@H](CCC(N)=O)NC(=O)[C@@H](NC(=O)[C@H](C)NC(=O)[C@@H]1CSSC[C@H](NC(=O)[C@H](CCCNC(=N)N)NC(=O)CC[C@H](NC(=O)CCCCCCCCCCCCCCCCCCC(=O)O)C(=O)O)C(=O)N[C@@H](CC(N)=O)C(=O)N[C@@H]([C@@H](C)O)C(=O)N[C@@H](C)C(=O)N[C@@H]([C@@H](C)O)C(=O)N1)[C@@H](C)O [Compound 87, [19CD]-isoGlu-R-C( )-NTAT-C( )-ATQRLA-Aad-FLQRSSF-Gly(Me)-A-Ile(Me)-LSSTEVGSST-Hyp-NH2] ({C20 diacid-γGlu}-RCNTATCATQRLA[Aad]FLQRSSF[Sar]A[NMeI]LSSTEVGSST[Hyp]-NH2; disulfide 2-7)
210	530	CC[C@H](C)[C@@H](C(=O)N[C@@H](CC(C)C)C(=O)N[C@@H](CO)C(=O)N[C@@H](CO)C(=O)N[C@H](C(=O)N[C@@H](CCC(=O)O)C(=O)N[C@H](C(=O)NCC(=O)N[C@@H](CO)C(=O)N[C@H](C(=O)N[C@H](C(=O)N1CCC[C@H]1C(N)=O)[C@@H](C)O)[C@@H](C)O)C(C)C)[C@@H](C)O)N(C)C(=O)[C@H](C)NC(=O)CN(C)C(=O)[C@H](Cc1ccccc1)NC(=O)[C@H](CO)NC(=O)[C@H](CO)NC(=O)[C@H](CCCNC(=N)N)NC(=O)[C@H](CCC(N)=O)NC(=O)[C@H](CC(C)C)NC(=O)[C@H](Cc1ccccc1)NC(=O)[C@H](CC(=O)O)NC(=O)[C@H](C)NC(=O)[C@H](CC(C)C)NC(=O)[C@H](CCCNC(=N)N)NC(=O)[C@H](CCC(N)=O)NC(=O)[C@@H](NC(=O)[C@H](C)NC(=O)[C@@H]1CSSC[C@H](NC(=O)[C@H](CCCNC(=N)N)NC(=O)CC[C@H](NC(=O)CCCCCCCCCCCCCCCCCCC(=O)O)C(=O)O)C(=O)N[C@@H](CC(N)=O)C(=O)N[C@@H]([C@@H](C)O)C(=O)N[C@@H](C)C(=O)N[C@@H]([C@@H](C)O)C(=O)N1)[C@@H](C)O [Compound 82, [19CD]-isoGlu-R-C( )-NTAT-C( )-ATQRLADFLQRSSF-Gly(Me)-A-Ile(Me)-LSSTEVGSTTP-NH2] ({C20 diacid-γGlu}-RCNTATCATQRLADFLQRSSF[Sar]A[NMeI]LSSTEVGSTTP-NH2; disulfide 2-7)
110	150	CC[C@H](C)[C@@H](C(=O)N[C@@H](CC(C)C)C(=O)N[C@@H](CO)C(=O)N[C@@H](CO)C(=O)N[C@H](C(=O)N[C@@H](CCC(=O)O)C(=O)N[C@H](C(=O)NCC(=O)N[C@@H](CO)C(=O)N[C@@H](CC(N)=O)C(=O)N[C@H](C(=O)N1C[C@H](O)C[C@H]1C(N)=O)[C@@H](C)O)C(C)C)[C@@H](C)O)N(C)C(=O)[C@H](C)NC(=O)CN(C)C(=O)[C@H](Cc1ccccc1)NC(=O)[C@H](CO)NC(=O)[C@H](CO)NC(=O)[C@H](CCCNC(=N)N)NC(=O)[C@H](CCC(N)=O)NC(=O)[C@H](CC(C)C)NC(=O)[C@H](Cc1ccccc1)NC(=O)[C@H](Cc1c[nH]cn1)NC(=O)[C@H](C)NC(=O)[C@H](CC(C)C)NC(=O)[C@H](CCCNC(=N)N)NC(=O)[C@H](CCC(N)=O)NC(=O)[C@@H](NC(=O)[C@H](C)NC(=O)[C@@H]1CSSC[C@H](NC(=O)[C@H](CCCNC(=N)N)NC(=O)CC[C@H](NC(=O)CCCCCCCCCCCCCCCCCCC(=O)O)C(=O)O)C(=O)N2CCC[C@H]2C(=O)N[C@@H]([C@@H](C)O)C(=O)N[C@@H](C)C(=O)N[C@@H]([C@@H](C)O)C(=O)N1)[C@@H](C)O [Compound 64, [19CD]-isoGlu-R-C( )-PTAT-C( )-ATQRLAHFLQRSSF-Gly(Me)-A-Ile(Me)-LSSTEVGSNT-Hyp-NH2] ({C20 diacid-γGlu}-RCPTATCATQRLAHFLQRSSF[Sar]A[NMeI]LSSTEVGSNT[Hyp]-NH2; disulfide 2-7)
